In patent US6013795A, “Alpha-branched fluoroalkylcarbonyl fluorides and their derivatives” (3M Innovative Properties Company, priority 1996, dated 2000):

Experiment: surface tension of aqueous surfactant solutions and critical micelle concentration (K-12 Processor Tensiometer)
Type: physicochemical
Details: carboxylate salts, deionized water; Table 5
Text: Critical Micelle Concentration (CMC): The critical micelle concentration is defined as the concentration at which further surface tension is no longer lowered with increasing levels of surfactant. […] Surface tension is then plotted vs. log concentration and the data points are connected. The resulting curve has a nearly horizontal flat portion at concentrations above the CMC and has a negative steep slope at concentrations below the CMC. The CMC is defined as the lowest surfactant concentration in the horizontal flat portion of the curve.
(§1) Then the critical micelle concentration (CMC) was determined for each surfactant.
as §1

Row | Compound | CMC [ppm] | Surf. Tens. at the CMC [dynes/cm]
1 | O=C(O)C(F)(C(F)(F)F)C(F)(F)C(F)(F)C(F)(F)C(F)(F)C(F)(F)F (stereo not shown) [Example M15, C5 F11 CF(CF3)COO^- H4 N^+] | > 10000 | 22.1
2 | O=C(O)C(F)(C(F)(F)F)C(F)(F)C(F)(F)C(F)(F)C(F)(F)C(F)(F)C(F)(F)F (stereo not shown) [Example M16, C6 F13 CF(CF3)COO^- H4 N^+] | 8000 | 17.9
3 | O=C(O)C(F)(C(F)(F)F)C(F)(F)C(F)(F)C(F)(F)C(F)(F)C(F)(F)C(F)(F)C(F)(F)C(F)(F)F (stereo not shown) [Example M17, C8 F17 CF(CF3)COO^- H4 N^+] | 2300 | 14.7
4 | O=C(O)C(F)(C(F)(F)F)C(F)(F)C(F)(F)C(F)(F)C(F)(F)C(F)(F)C(F)(F)C(F)(F)C(F)(F)C(F)(F)C(F)(F)F (stereo not shown) [Example M18, C10 F21 CF(CF3)COO^- H4 N^+] | 600 | 14.8
5 | O=C(O)C(F)(C(F)(F)F)C(F)(F)C(F)(F)C(F)(F)C(F)(F)C(F)(F)C(F)(F)C(F)(F)F (stereo not shown) [Example M20, C7 F15 CF(CF3)COO^- H3 N^+ C2 H4 OH] | 500 | 15.0
6 | O=C(O)C(F)(C(F)(F)F)C(F)(F)C(F)(F)C(F)(F)C(F)(F)C(F)(F)F (stereo not shown) [Example M21, C5 F11 CF(CF3)COO^- K^+] | > 10000 | 22.5
7 | O=C(O)C(F)(C(F)(F)F)C(F)(F)C(F)(F)C(F)(F)C(F)(F)C(F)(F)C(F)(F)F (stereo not shown) [Example M22, C6 F13 CF(CF3)COO^- K^+] | 10000 | 17.5
8 | O=C(O)C(F)(C(F)(F)F)C(F)(F)C(F)(F)C(F)(F)C(F)(F)C(F)(F)C(F)(F)C(F)(F)F (stereo not shown) [Example M23, C7 F15 CF(CF3)COO^- K^+] | 2500 | 15.0
9 | O=C(O)C(F)(C(F)(F)F)C(F)(F)C(F)(F)C(F)(F)C(F)(F)C(F)(F)C(F)(F)C(F)(F)C(F)(F)F (stereo not shown) [Example M24, C8 F17 CF(CF3)COO^- K^+] | 3000 | 16.4
10 | O=C(O)C(F)(C(F)(F)F)C(F)(F)C(F)(F)C(F)(F)C(F)(F)C(F)(F)C(F)(F)F (stereo not shown) [Example M25, C6 F13 CF(CF3)COO^- Na^+] | 10000 | 19.8
11 | O=C(O)C(F)(C(F)(F)F)C(F)(F)C(F)(F)C(F)(F)C(F)(F)C(F)(F)C(F)(F)C(F)(F)F (stereo not shown) [Example M26, C7 F15 CF(CF3)COO^- Na^+] | 3000 | 19.4
12 | O=C(O)C(F)(C(F)(F)F)C(F)(F)C(F)(F)C(F)(F)C(F)(F)C(F)(F)C(F)(F)C(F)(F)F (stereo not shown) [Example M27, C7 F15 CF(CF3)COO^- Li^+] | 3500 | 24.1
13 | O=C(O)C(F)(C(F)(F)F)C(F)(F)C(F)(F)C(F)(F)C(F)(F)C(F)(F)C(F)(F)C(F)(F)F (stereo not shown) [Example M30, C7 F15 CF(CF3)COO^- 1/2 [H3 N^+ C2 H4 NHC2 H4 N^+ H3]] | 3000 | 16.2

Same assay, conditions: deionized water; Table 3

Row | Compound | CMC [ppm] | Surf. Tens. at the CMC [dynes/cm] | solubility remark
14 | C[N+](C)([O-])CCCNC(=O)C(F)(C(F)(F)F)C(F)(F)C(F)(F)C(F)(F)C(F)(F)C(F)(F)C(F)(F)C(F)(F)F (stereo not shown) [Example E1, C7 F15 CF(CF3)CONH(CH2)3 N^+ (CH3)2 O^-] | 20 | 16.3 | 
15 | C[N+](C)([O-])CCCNC(=O)C(F)(C(F)(F)F)C(F)(F)C(F)(F)C(F)(F)C(F)(F)C(F)(F)F (stereo not shown) [Example E2, C5 F11 CF(CF3)CONH(CH2)3 N^+ (CH3)2 O^-] | 500 | 17.5 | 
16 | C[N+](C)([O-])CCCNC(=O)C(F)(C(F)(F)F)C(F)(F)C(F)(F)C(F)(F)C(F)(F)C(F)(F)C(F)(F)F (stereo not shown) [Example E3, C6 F13 CF(CF3)CONH(CH2)3 N^+ (CH3)2 O^-] | 100 | 16.6 | 
17 | C[N+](C)([O-])CCCNC(=O)C(F)(C(F)(F)F)C(F)(F)C(F)(F)C(F)(F)C(F)(F)C(F)(F)C(F)(F)C(F)(F)C(F)(F)F (stereo not shown) [Example E4, C8 F17 CF(CF3)CONH(CH2)3 N^+ (CH3)2 O^-] | 20 | 16.5 | 
18 | C[N+](C)([O-])CCCNC(=O)C(F)(C(F)(F)F)C(F)(F)C(F)(F)C(F)(F)C(F)(F)C(F)(F)C(F)(F)C(F)(F)C(F)(F)C(F)(F)C(F)(F)F (stereo not shown) [Example E5, C10 F21 CF(CF3)CONH(CH2)3 N^+ (CH3)2 O^-] | 500 | 17.1 | 
19 | C[N+](C)([O-])CCCNC(=O)C(F)(C(F)(F)C(F)(F)C(F)(F)F)C(F)(F)C(F)(F)C(F)(F)C(F)(F)C(F)(F)C(F)(F)C(F)(F)F (stereo not shown) [Example E7, C7 F15 CF(C3 F7)CONH(CH2)3 N^+ (CH3)2 O^-] |  |  | low solub.
20 | C[N+](C)([O-])CCCN(CCO)C(=O)C(F)(C(F)(F)F)C(F)(F)C(F)(F)C(F)(F)C(F)(F)C(F)(F)C(F)(F)C(F)(F)F (stereo not shown) [Example E8, C7 F15 CF(CF3)CON(C2 H4 OH)(CH2)3 N^+ (CH3)2 O^-] |  | 16.6 | 
21 | O=C(NCCC[N+]1([O-])CCOCC1)C(F)(C(F)(F)F)C(F)(F)C(F)(F)C(F)(F)C(F)(F)C(F)(F)C(F)(F)C(F)(F)F (stereo not shown) [Example E9] |  |  | low solub.
22 | O=C(NCCOC(=O)C(F)(C(F)(F)F)C(F)(F)C(F)(F)C(F)(F)C(F)(F)C(F)(F)C(F)(F)C(F)(F)F)c1cc[n+]([O-])cc1 (stereo not shown) [Example E10] | 400 | 14.5 | 
23 | O=C(NCCOC(=O)C(F)(C(F)(F)F)C(F)(F)C(F)(F)C(F)(F)C(F)(F)C(F)(F)C(F)(F)F)c1cc[n+]([O-])cc1 (stereo not shown) [Example E11] | 1000 | 15.5 | 
24 | O=C(OCCc1cccc[n+]1[O-])C(F)(C(F)(F)F)C(F)(F)C(F)(F)C(F)(F)C(F)(F)C(F)(F)C(F)(F)F (stereo not shown) [Example E12] | 8000 | 18.3 | 
25 | O=C(OCCc1cccc[n+]1[O-])C(F)(C(F)(F)F)C(F)(F)C(F)(F)C(F)(F)C(F)(F)C(F)(F)C(F)(F)C(F)(F)F (stereo not shown) [Example E13] | 6000 | 15.0 | 
26 | C[n+]1ccc(C(=O)NCCOC(=O)C(F)(C(F)(F)F)C(F)(F)C(F)(F)C(F)(F)C(F)(F)C(F)(F)C(F)(F)C(F)(F)F)cc1 (stereo not shown) [Example F1] | 500 | 15.0 | 
27 | C[n+]1ccc(C(=O)NCCOC(=O)C(F)(C(F)(F)F)C(F)(F)C(F)(F)C(F)(F)C(F)(F)C(F)(F)C(F)(F)F)cc1 (stereo not shown) [Example F2] | 30 | 15.5 | 
28 | C[N+](C)(CCO)CCCNC(=O)C(F)(C(F)(F)F)C(F)(F)C(F)(F)C(F)(F)C(F)(F)C(F)(F)F (stereo not shown) [Example F3] | 1000 | 17.0 | 
29 | C[N+](C)(CCO)CCCNC(=O)C(F)(C(F)(F)F)C(F)(F)C(F)(F)C(F)(F)C(F)(F)C(F)(F)C(F)(F)C(F)(F)F (stereo not shown) [Example F4] | 300 | 19.0 | 
30 | O=C(NCCC[N+]1(CCO)CCOCC1)C(F)(C(F)(F)F)C(F)(F)C(F)(F)C(F)(F)C(F)(F)C(F)(F)C(F)(F)C(F)(F)F (stereo not shown) [Example F5] | 1000 | 20.8 | 
31 | CN(C)CCCN(CCCN(C)C)C(=O)C(F)(C(F)(F)F)C(F)(F)C(F)(F)C(F)(F)C(F)(F)C(F)(F)C(F)(F)C(F)(F)F (stereo not shown) [Example F9, C7 F15 CF(CF3)CON[C3 H6 N^+ (CH3)2 H]2 2[^- OOCCH3]] | 1000 | 22.0 | 
32 | C[N+](C)(CCCNC(=O)C(F)(C(F)(F)F)C(F)(F)C(F)(F)C(F)(F)C(F)(F)C(F)(F)C(F)(F)C(F)(F)F)CCC(=O)[O-] (stereo not shown) [Example K1, C7 F15 CF(CF3)CONH(CH2)3 N^+ (CH3)2 C2 H4 COO^-] |  | 16.6 | 
33 | O=C([O-])CC[N+]1(CCCNC(=O)C(F)(C(F)(F)F)C(F)(F)C(F)(F)C(F)(F)C(F)(F)C(F)(F)C(F)(F)C(F)(F)F)CCOCC1 (stereo not shown) [Example K3] | 1000 | 19.2 | 
34 | C[N+](C)(CCCN(CCC[N+](C)(C)CCC(=O)[O-])C(=O)C(F)(C(F)(F)F)C(F)(F)C(F)(F)C(F)(F)C(F)(F)C(F)(F)C(F)(F)C(F)(F)F)CCC(=O)[O-] (stereo not shown) [Example K4] | 100 | 23.6 | 
35 | C6 F13 CF(CF3)CON(C3 H6 SO3^-)(CH2)3 N^+ (CH3)2 H [Example K2] | 500 | 20.3 | 
36 | C8 F17 CF(CF3)CO(OCH2 CH2)16 OCH3 [Example J1] | 150 | 22 | 

Experiment: thermal degradation in water and characterization of volatile products
Type: physicochemical
Details: aqueous solution, similar way
Protocol: The thermal degradation of an aqueous α-branched perfluoroalkylcarbonyl fluoride and the characterization of the products produced from the degradation were carried out using the following procedure. […] 5.7 g of volatile degradation products were then collected by azeotropic distillation using a Dean-Stark apparatus.
The thermal degradation of C7 F15 CF(CF3)COF (from Example A4) dispersed in water was also carried out by heating the aqueous mixture for several hours at approximately 80° C.

Row | Compound | degradation products in aqueous solution
37 | O=C(O)C(F)(C(F)(F)F)C(F)(F)C(F)(F)C(F)(F)C(F)(F)C(F)(F)C(F)(F)C(F)(F)F (stereo not shown) [Example M1, C7 F15 CF(CF3)COOH] | the same monohydride and olefin

Same assay, conditions: deionized water, refluxed 2 hours

Row | Compound | monohydride C7 F15 CFHCF3 in degradation products [%]
38 | O=C(F)C(F)(C(F)(F)F)C(F)(F)C(F)(F)C(F)(F)C(F)(F)C(F)(F)C(F)(F)C(F)(F)F (stereo not shown) [Example A1, C7 F15 CF(CF3)COF] | 85

Same assay, conditions: deionized water, refluxed 2 hours; cis/trans mixture

Row | Compound | olefin C6 F13 CF=CFCF3 in degradation products [%]
39 | O=C(F)C(F)(C(F)(F)F)C(F)(F)C(F)(F)C(F)(F)C(F)(F)C(F)(F)C(F)(F)C(F)(F)F (stereo not shown) [Example A1, C7 F15 CF(CF3)COF] | 15

Same assay, conditions: from 8 g, water, refluxed 2 hours

Row | Compound | volatile degradation products collected [g]
40 | O=C(F)C(F)(C(F)(F)F)C(F)(F)C(F)(F)C(F)(F)C(F)(F)C(F)(F)C(F)(F)C(F)(F)F (stereo not shown) [Example A1, C7 F15 CF(CF3)COF] | 5.7

Same assay, conditions: water, several hours at approximately 80° C.

Row | Compound | volatile products formed
41 | O=C(F)C(F)(C(F)(F)F)C(F)(F)C(F)(F)C(F)(F)C(F)(F)C(F)(F)C(F)(F)C(F)(F)F (stereo not shown) [Example A1, C7 F15 CF(CF3)COF] | The same volatile products were formed
